{"source": "patent US7091038B2", "about": "“Ecdysone receptor-based inducible gene expression system” (RheoGene, Inc., priority 2000, dated 2006)", "key": {"[1]": {"tested_on": "GAL4RXR + VP16CfEcR", "assay": "Transactivation of reporter gene through switch 1.3 in CHO cells", "format": "cell-based, Mus musculus; Choristoneura fumiferana", "settings": "switch 1.3, pGAL4RELuc", "method": "(§1) The cells were harvested and reporter activity was assayed.\n(§2) Cells were harvested 24–48 hr after adding ligands. […] Twenty μl of lysate was assayed."}, "[2]": {"tested_on": "GAL4EcR + VP16USP", "assay": "Transactivation of reporter gene through switch 1.2 in CHO cells", "format": "cell-based, Choristoneura fumiferana", "settings": "switch 1.2, pGAL4RELuc", "method": "This construct was prepared in the same way as in switch 1.1 above except MmRXRDEF was replaced with the D, E and F domains from spruce budworm USP (“CfUSPDEF”; SEQ ID NO: 67). The constructs used in this example are similar to those disclosed in U.S. Pat. No. 5,880,333 except that Choristoneura fumiferana USP rather than Drosophila melanogaster USP was utilized.\nas §1, §2"}, "[3]": {"tested_on": "GAL4USP + VP16CfEcR", "assay": "Transactivation of reporter gene through switch 1.5 in CV1 cells", "format": "cell-based, Choristoneura fumiferana", "settings": "switch 1.5, pGAL4RELuc", "method": "(§3) This construct was prepared in the same way as switch 1.3 except MmRXRDEF was replaced with CfUSPDEF (SEQ ID NO: 67).\nas §1\n(§4) The cells were plated when they reached 50% confluency.\n(§5) The same procedures described for NIH3T3 cells were followed for CV1 cells\nas §2"}, "[4]": {"target": "T1, DmVgRXR + MmRXR (Drosophila melanogaster, UniProt P34021, E282G/G283S/G286V)", "T1 sequence (P28700 whole entry, the tested form may be a part)": "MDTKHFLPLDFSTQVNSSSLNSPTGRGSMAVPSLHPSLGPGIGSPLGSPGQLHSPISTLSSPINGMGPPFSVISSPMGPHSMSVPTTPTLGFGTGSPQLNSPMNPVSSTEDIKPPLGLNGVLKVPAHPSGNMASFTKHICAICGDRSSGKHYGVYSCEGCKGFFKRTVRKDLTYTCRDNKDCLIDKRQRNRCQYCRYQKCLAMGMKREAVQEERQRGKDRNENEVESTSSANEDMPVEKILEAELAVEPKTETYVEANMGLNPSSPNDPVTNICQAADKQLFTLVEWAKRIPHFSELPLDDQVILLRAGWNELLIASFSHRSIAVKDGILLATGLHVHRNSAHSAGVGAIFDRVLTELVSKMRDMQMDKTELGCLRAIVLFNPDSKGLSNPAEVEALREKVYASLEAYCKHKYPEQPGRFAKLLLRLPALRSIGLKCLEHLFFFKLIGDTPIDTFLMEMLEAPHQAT", "T1 sequence (P34021 whole entry E282G/G283S/G286V, the tested form may be a part)": "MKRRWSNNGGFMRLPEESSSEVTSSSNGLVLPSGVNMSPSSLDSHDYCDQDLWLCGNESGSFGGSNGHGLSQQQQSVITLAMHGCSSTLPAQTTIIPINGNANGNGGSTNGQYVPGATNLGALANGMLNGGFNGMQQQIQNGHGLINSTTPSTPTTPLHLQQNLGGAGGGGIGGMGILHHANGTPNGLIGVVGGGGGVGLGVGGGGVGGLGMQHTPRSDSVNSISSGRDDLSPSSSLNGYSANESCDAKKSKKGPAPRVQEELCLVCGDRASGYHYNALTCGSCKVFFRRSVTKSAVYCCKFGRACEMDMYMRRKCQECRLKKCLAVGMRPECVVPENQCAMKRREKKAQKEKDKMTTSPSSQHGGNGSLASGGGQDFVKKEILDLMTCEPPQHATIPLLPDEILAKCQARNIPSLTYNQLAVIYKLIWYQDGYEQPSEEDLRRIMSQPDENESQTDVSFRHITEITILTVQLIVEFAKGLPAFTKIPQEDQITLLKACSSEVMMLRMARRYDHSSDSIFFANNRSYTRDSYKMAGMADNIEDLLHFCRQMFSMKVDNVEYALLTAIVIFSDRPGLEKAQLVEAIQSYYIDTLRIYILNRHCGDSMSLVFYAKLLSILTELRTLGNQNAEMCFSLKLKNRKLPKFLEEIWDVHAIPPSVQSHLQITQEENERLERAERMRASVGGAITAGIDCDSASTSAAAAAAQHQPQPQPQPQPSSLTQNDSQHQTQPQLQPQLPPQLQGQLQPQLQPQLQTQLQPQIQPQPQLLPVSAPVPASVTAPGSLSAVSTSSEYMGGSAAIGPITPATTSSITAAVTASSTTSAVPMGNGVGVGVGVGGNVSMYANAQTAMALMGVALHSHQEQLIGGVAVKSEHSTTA", "assay": "Transactivation of reporter gene through switch 1.8 in 293 cells", "format": "cell-based, Drosophila melanogaster; Mus musculus", "set-up": "host or cells: CHO, NIH3T3, 293 or CV1 cells", "settings": "switch 1.8, pIND(SP1)LacZ", "description": "(§6) This system was purchased from Invitrogen Corp., Carlsbad, California. It comprises a Drosophila melanogaster EcR (“DmEcR”) with a modified DNABD fused to VP16AD and placed under the control of a CMV promoter (SEQ ID NO: 68). Full length MmRXR (SEQ ID NO: 62) was placed under the control of the RSV promoter (SEQ ID NO: 69). The reporter, pIND(SP1)LacZ, contains five copies of a modified ecdysone response element (“EcRE”, E/GRE), three copies of an SPI enhancer, and a minimal heat shock promoter, all of which were placed upstream to the LacZ reporter gene.\nas §1\nThe same procedures described for CHO were followed for 293 cells except that the cells were plated in biocoated plates to avoid clumping.\nas §2"}, "[5]": {"target": "T1, DmVgRXR + MmRXR", "assay": "Transactivation of reporter gene through switch 1.8 in CHO cells", "format": "cell-based, Drosophila melanogaster; Mus musculus", "set-up": "host or cells: CHO, NIH3T3, 293 or CV1 cells", "settings": "switch 1.8, pIND(SP1)LacZ", "description": "as §6, §1, §2"}, "[6]": {"tested_on": "GAL4USP + VP16CfEcR", "assay": "Transactivation of reporter gene through switch 1.5 in 3T3 cells", "format": "cell-based, Choristoneura fumiferana", "settings": "switch 1.5, pGAL4RELuc", "method": "as §3, §1, §4, §2"}, "[7]": {"tested_on": "CfVgRXR", "assay": "Transactivation of reporter gene through switch 1.10 in CV1 cells", "format": "cell-based, Choristoneura fumiferana", "settings": "switch 1.10, pIND(SP1)LacZ", "method": "(§7) This example was prepared in the same way as switch 1.9 except MmRXR (SEQ ID NO: 62) was deleted.\nas §1, §4, §5, §2"}, "[8]": {"tested_on": "CfEcRDEF:MmRXRDEF", "assay": "CfEcR-based yeast two-hybrid assay, LacZ reporter pSH118", "format": "cell-based, Choristoneura fumiferana; Mus musculus", "description": "This construct results in a LexA:CfEcRDEF fusion that is expressed under the GAL1 promoter.\nThe D, E, and F domains from mouse (Mus musculus) RXR α (“MmRXRDEF”; SEQ ID NO: 22) were fused to a B42 transactivation domain (“B42AD”; SEQ ID NO: 53) and placed under the control of a GAL1 promoter (SEQ ID NO: 73) in pB42AD (CLONTECH). This construct results in a B42AD:MmRXR-DEF fusion that is expressed under the GAL 1 promoter.\nA reporter plasmid comprising a β-galactosidase gene (LacZ; SEQ ID NO: 74) under the control of an 8XLexA operon response element (“8XlexAop”; SEQ ID NO: 75) operably linked to a minimal TATAA region from the GAL1 promoter (p8op-lacZ from CLONTECH) was used to monitor inducible gene expression.\nSaccharomyces cerevisiae yeast cells (EGY48; CLONTECH) were used in these experiments. Cells were maintained in liquid culture media with the appropriate drop out amino acids. Standard methods for culture and maintenance of the cells were followed. […]\nDNA constructs pSH118, CfEcRDEF, and MmRXRA/BCDEF, MmRXRDEF, or […] were transfected into yeast cells. […] A colony from each group of transformants was grown in the liquid culture in the presence of 0, 0.04, 0.2, 1, 5 and 25 μM GS™-E. The reporter activity was measured as described above 4 hours after adding ligand. Total RLUs were calculated and the numbers on the bars of FIG. 16 show maximum fold induction observed for that group (see FIGS. 16 and 17).\nThe best performing transformed yeast strain from the analysis above comprising CfEcRDEF:MmRXRDEF was used to determine the induction activity of three steroid ligands (20E, PonA, MurA) and four non-steroid ligands (GS™-E, RH2485, RH5992, RH5849) in this yeast-based format. The yeast cells were cultured in the presence of 0, 0.l, 1, 10, 50 and 100 μM ligands for four hours and the reporter activity was measured as described above. Total RLUs were calculated and the numbers on the top of the bars of FIG. 18 show the maximum fold induction for that group (see FIGS. 18 and 19)."}, "[9]": {"tested_on": "CfVgRXR", "assay": "Transactivation of reporter gene through switch 1.10 in CHO cells", "format": "cell-based, Choristoneura fumiferana", "settings": "switch 1.10, pIND(SP1)LacZ", "method": "as §7, §1, §2"}, "[10]": {"tested_on": "GAL4CfEcRVP16", "assay": "Transactivation of reporter gene through switch 1.6 in 3T3 cells", "format": "cell-based, Choristoneura fumiferana", "settings": "switch 1.6, pGAL4RELuc", "method": "This construct was prepared so that both the GAL4 DNABD and the VP16AD were placed on the same molecule. GAL4DNABD (SEQ ID NO: 43) and VP16AD (SEQ ID NO: 49) were fused to CfEcRDEF (SEQ ID NO: 3) at N-and C-termini respectively.\nas §1, §4, §2"}}}
{"smiles": "CCc1c(OC)cccc1C(=O)NN(C(=O)c1cc(C)cc(C)c1)C(C)(C)C", "note": "[N-(2-ethyl-3-methoxybenzoyl)-N′-(3,5-dimethylbenzoyl)-N′-t-butylhydrazine]", "values": [{"measurement": "Mean Fold Activation with 50 μM N-(2-ethyl-3-methoxybenzoyl)-N′-(3,5-dimethylbenzoyl)-N′-t-butylhydrazine", "setting": "[1]", "value": 85, "unit": "fold"}, {"measurement": "Mean Fold Activation with 50 μM N-(2-ethyl-3-methoxybenzoyl)-N′-(3,5-dimethylbenzoyl)-N′-t-butylhydrazine", "setting": "[2]", "value": 2, "unit": "fold"}, {"measurement": "Mean Fold Activation Through N-(2-ethyl-3-methoxybenzoyl)-N′-(3,5-dimethylbenzoyl)-N′-t-butylhydrazine", "setting": "[3]", "value": 3, "unit": "fold"}, {"measurement": "Mean Fold Activation Through N-(2-ethyl-3-methoxybenzoyl)-N′-(3,5-dimethylbenzoyl)-N′-t-butylhydrazine", "setting": "[4]", "value": 21, "unit": "fold"}, {"measurement": "Mean Fold Activation with 50 μM N-(2-ethyl-3-methoxybenzoyl)-N′-(3,5-dimethylbenzoyl)-N′-t-butylhydrazine", "setting": "[5]", "value": 14, "unit": "fold"}, {"measurement": "Mean Fold Activation Through N-(2-ethyl-3-methoxybenzoyl)-N′-(3,5-dimethylbenzoyl)-N′-t-butylhydrazine", "setting": "[6]", "value": 3, "unit": "fold"}, {"measurement": "Mean Fold Activation Through N-(2-ethyl-3-methoxybenzoyl)-N′-(3,5-dimethylbenzoyl)-N′-t-butylhydrazine", "setting": "[7]", "value": 1, "unit": "fold"}, {"measurement": "Fold induction", "setting": "[8]; yeast cells, CfEcRDEF/MmRXRDEF, 0–25 μM, 4 hours after adding ligand", "value": "approximately 1800 fold"}, {"measurement": "Induction of gene expression (relative performance of ligands)", "setting": "[8]; yeast strain comprising CfEcRDEF:MmRXRDEF, 0–100 μM ligand for four hours, FIGS. 18 and 19", "value": "induce gene expression better than any other ligand tested"}, {"measurement": "Mean Fold Activation with 50 μM N-(2-ethyl-3-methoxybenzoyl)-N′-(3,5-dimethylbenzoyl)-N′-t-butylhydrazine", "setting": "[9]", "value": 29, "unit": "fold"}, {"measurement": "Mean Fold Activation Through N-(2-ethyl-3-methoxybenzoyl)-N′-(3,5-dimethylbenzoyl)-N′-t-butylhydrazine", "setting": "[10]", "value": 7, "unit": "fold"}]}
